# Source: paper PMC3223204, “Implantation Serine Proteinase 1 Exhibits Mixed Substrate Specificity that Silences Signaling via Proteinase-Activated Receptors” (PLoS ONE, 2011)
# “Also recorded” adds a separate entry of the source. Where a name gives a salt, the structure may show the parent alone. Read-outs that look alike come from different tables or passages of the source. Non-standard residues stand in square brackets, D forms with d. Residues, ends and D or L forms follow the SMILES beside them. *: point of attachment. pNA = O=[N+]([O-])c1ccc(N*)cc1; Tos = Cc1ccc(S(=O)(=O)*)cc1; Bz = O=C(c1ccccc1)*
# T1: recombinant ISP1 (Mus musculus, UniProt Q924N9)
# T1 construct: Myc (C); His6 (C); made in house; host or cells: Pichia pastoris SMD1168
# T1 sequence (Q924N9 31-274 limits assumed): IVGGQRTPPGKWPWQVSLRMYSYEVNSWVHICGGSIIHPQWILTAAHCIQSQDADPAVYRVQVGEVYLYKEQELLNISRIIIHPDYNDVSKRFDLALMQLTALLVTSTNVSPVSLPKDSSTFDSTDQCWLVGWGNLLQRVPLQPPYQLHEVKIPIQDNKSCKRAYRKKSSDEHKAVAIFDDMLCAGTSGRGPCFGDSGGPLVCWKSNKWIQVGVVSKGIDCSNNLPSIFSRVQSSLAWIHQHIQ
# Experiments:
# [1] = target: T1, recombinant ISP1; test: Chromogenic substrate kinetics of recombinant ISP1; format: biochemical; settings: for Hydrolysis of chromogenic substrate by rISP1: result in words; for Michaelis Menton Constant (Km) / Turnover No. (kcat) / Km: substrate of recombinant ISP1, 25 mM Tris.Cl pH 8.0, room temperature; for Turnover No. (kcat): [E] 6.5 uM; for Km: read-out: Michaelis Menton Constant (Km)
# Protocol: (§1) p-Nitroanilide substrates, Valine-Proline-Arginine-Amino methyl coumarin (VPR-AMC), Benzamidine Hydrochloride, TLCK (N -p-tosyl-L-lysine chloromethyl ketone), APMSF (4-Amidino-Phenyl)-Methane-Sulfonyl Fluoride), Trypsin Soybean Inhibitor (TSI) and Gabexate mesylate were obtained from Sigma Aldrich and Co. Oakville, ON Canada. Chromogenic assays were performed using the p-Nitroanilide/methyl-naphthylamide conjugated peptidic substrates. The reaction conditions used were: 25 mM Tris.Cl (pH 8.0) buffer with 10 mM EDTA reaction buffer, in a total reaction volume of 0.5 mL including varying concentrations of the substrates and enzyme sample. The reactions were done at room temperature in a glass cuvette (1 cm path length), and scanned at wavelength of 405 nm (in case of p-nitroanilide conjugated substrates) and 540 nm (in case of methyl-naphthylamide substrates) using a spectrophotometer. 1 Unit of enzyme is defined as the amount of enzyme capable of the breakdown of 1 micromole of substrate/min.
# (§2) The catalytic activity of recombinant ISP1 with various small chromogenic peptide substrates was characterized by measuring enzyme cleavage at differing substrate concentrations and plotting enzyme activity [V] vs. substrate concentration [S] and calculating Michaelis Menten constant (Km). The Km was calculated using the Michaelis Menten equation (Km = [S] at ½ Vmax). Sigma plot was used for plotting the values obtained and determining Michaelis Menten Constant (Km). Inhibition of proteolytic activity of recombinant ISP1 was determined by measuring enzyme activity in the presence of varying concentrations of serine proteinase inhibitors. 2 mM BAPNA and 150 uM VPR-AMC were employed for enzyme assays in these inhibition studies. Sigma plot was used for plotting the values obtained in order to determine dissociation constant (Ki). Enzyme concentration [E] used for these experiments was 6.5 uM. This value was employed for calculating turnover number (kcat) and enzyme efficiency represented by kcat/Km ratio.
# [2] = target: T1, recombinant ISP1; test: Inhibition of recombinant ISP1 by general serine proteinase inhibitors; format: biochemical; settings: for Effect on enzyme activity of rISP1: 2 mM BAPNA as well as 150 µM VPR-AMC as substrate, result in words; for Ki: read-out: Ki (Apparent Ki)
# Protocol: as §1, §2
Molecule,Hydrolysis of chromogenic substrate by rISP1 [1],Turnover No. (kcat) [1],Effect on enzyme activity of rISP1 [2],also measured
C[C@H](N)C(=O)Nc1ccc([N+](=O)[O-])cc1 [Alanine p-nitroanilide],no reaction,Nil,,Michaelis Menton Constant (Km) [1]: Nil
N=C(N)c1ccccc1 [Benzamidine Hydrochloride],,,no noticeable effect,Ki (Apparent Ki) ([2]; substrate BAPNA (2 mM)): No inhibition
CC(C)C[C@H](NC(=O)[C@@H](NC(=O)N[C@@H](Cc1ccccc1)C(=O)O)[C@@H]1CCN=C(N)N1)C(=O)N[C@H](C=O)Cc1ccccc1 [Chymostatin],,,inhibited the enzyme activity,Effect on enzyme activity of rISP1 ([2]; listed as chymostatin): strong inhibitory activity; Ki ([2]; substrate BAPNA (2 mM)): 220 µM
CCOC(=O)c1ccc(OC(=O)CCCCCN=C(N)N)cc1.CS(=O)(=O)O [Gabexate mesylate],,,inhibited the enzyme activity,Effect on enzyme activity of rISP1 ([2]; listed as gabexate mesylate): strong inhibitory activity; Ki ([2]; substrate BAPNA (2 mM)): 1700 µM
CC(=O)N[C@@H](CC(C)C)C(=O)N[C@@H](CC(C)C)C(=O)N[C@H](C=O)CCCNC(=N)N [Leupeptin],,,no noticeable effect,Ki (Apparent Ki) ([2]; substrate BAPNA (2 mM)): No inhibition
CC(=O)O.Cc1ccc(S(=O)(=O)NCC(=O)N2CCC[C@H]2C(=O)N[C@@H](CCCCN)C(=O)Nc2ccc([N+](=O)[O-])cc2)cc1 [N(p-tosyl)-glycine-proline-lysine p-nitroanilide acetate] (Tos-Gly-Pro-Lys-pNA),no enzyme activity,Nil,,Michaelis Menton Constant (Km) [1]: Nil
"Cl.N=C(N)NCCC[C@H](NC(=O)c1ccccc1)C(=O)Nc1ccc([N+](=O)[O-])cc1 [N-Benzoyl Argininep-nitroanilide (BAPNA), N-Benzoyl-L- arginine p-nitroanilide hydrochloride]",hydrolyzed,2.2 s⁻¹,,Km [1]: 610 µM
CC[C@H](C)[C@H](NC(=O)c1ccccc1)C(=O)N[C@@H](Cc1ccccc1)C(=O)N[C@@H](CCCCN)C(=O)Nc1ccc([N+](=O)[O-])cc1.Cl [N-Benzoyl-isoleucine-phenylalanine-lysine p-nitroanilide hydrochloride] (Bz-Ile-Phe-Lys-pNA),hydrolyzed,3.9 s⁻¹,,Km [1]: 9600 µM
CC(C)[C@H](NC(=O)[C@H](Cc1ccccc1)NC(=O)c1ccccc1)C(=O)N[C@@H](CCCNC(=N)N)C(=O)Nc1ccc([N+](=O)[O-])cc1.Cl [N-Benzoyl-phenylalanine-valine-arginine p-nitroanilide hydrochloride] (Bz-Phe-Val-Arg-pNA),hydrolyzed,0.14 s⁻¹,,Km [1]: 360 µM
COc1cc(NC(=O)C(CCCNC(=N)N)NC(=O)C(CCCNC(=N)N)NC(=O)C(CCCNC(=N)N)NC(=O)OCc2ccccc2)cc2ccccc12 (stereo not shown) [N-CBZ-arginine-arginine-arginine-4-methoxy naphthylamide],hydrolyzed,0.7 s⁻¹,,Km ([1]; listed as RRRmN): ~100 µM; Km [1]: 99 µM
C[C@H](NC(=O)CCC(=O)O)C(=O)N[C@@H](C)C(=O)N[C@@H](C)C(=O)Nc1ccc([N+](=O)[O-])cc1 [N-Succinyl-alanine-alanine-alanine p-nitroanilide],no reaction,Nil,,Michaelis Menton Constant (Km) [1]: Nil
O=S(=O)(F)Cc1ccccc1 [PMSF],,,inhibited the enzyme activity; also recorded: strong inhibitory activity,Ki ([2]; substrate VPR-AMC (0.15 mM)): 340 µM
"Cc1ccc(S(=O)(=O)N[C@@H](CCCCN)C(=O)CCl)cc1 [TLCK, N -p-tosyl-L-lysine chloromethyl ketone]",,,inhibited the enzyme activity; also recorded: strong inhibitory activity,Ki ([2]; substrate VPR-AMC (0.15 mM)): 30 µM
"CC(C)C[C@H](NC(=O)[C@H](N)C(C)C)C(=O)N[C@@H](CCCCN)C(=O)Nc1ccc([N+](=O)[O-])cc1.Cl [Valine-Leucine-Lysinep-nitroanilide, H-D-valine-leucine-lysine p-nitroanilide hydrochloride] (H-[dV]-Leu-Lys-pNA)",no enzyme activity,Nil,,Michaelis Menton Constant (Km) [1]: Nil
CC(C)[C@H](N)C(=O)N[C@@H](Cc1ccccc1)C(=O)N[C@@H](CCCCN)C(=O)Nc1ccc([N+](=O)[O-])cc1 [Valine-Phenylalanine-Lysine p-nitroanilide] (H-Val-Phe-Lys-pNA),no enzyme activity,Nil,,Michaelis Menton Constant (Km) [1]: Nil
Aprotinin,,,no noticeable effect,Ki (Apparent Ki) ([2]; substrate BAPNA (2 mM)): No inhibition
α-1-Antitrypsin: general serine proteinase inhibitor,,,inhibited the enzyme activity,Effect on enzyme activity of rISP1 ([2]; listed as α-1 antitrypsin): strong inhibitory activity; Ki ([2]; substrate BAPNA (2 mM)): 2 µM
"Soybean Trypsin Inhibitor: general serine proteinase inhibitor (protein, UniProt P01070 25-205, looked up) Trypsin inhibitor A: DFVLDNEGNPLENGGTYYILSDITAFGGIRAAPTGNERCPLTVVQSRNELDKGIGTIISSPYRIRFIAEGHPLSLKFDSFAVIMLCVGIPTEWSVVEDLPEGPAVKIGENKDAMDGWFRLERVSDDEFNNYKLVFCPQQAEDDKCGDIGISIDHDDGTRRLVVSKNKPLVVQFQKLDKESL",,,inhibited the enzyme activity,Effect on enzyme activity of rISP1 ([2]; listed as trypsin soybean inhibitor): strong inhibitory activity; Ki ([2]; substrate BAPNA (2 mM)): 2.4 µM
"Recombinant human SLPI: recombinant human Secretory Leukocyte Protease Inhibitor (protein, UniProt P03973 26-132, looked up) Antileukoproteinase: SGKSFKAGVCPPKKSAQCLRYKKPECQSDWQCPGKKRCCPDTCGIKCLDPVDTPNPTRRKPGKCPVTYGQCLMLNPPNFCEMDGQCKRDLKCCMGMCGKSCVSPVKA",,,no noticeable effect,Ki (Apparent Ki) ([2]; substrate BAPNA (2 mM)): No inhibition
